We go through 5 molecules from PMC8964423 (Frontiers in Chemistry, 2022).

Broadly, the IC50 is the point on the concentration scale where inhibition reaches its midpoint.

One test relates to HeLa. In words: Cell viability assay (Ez-cytox; Table 1 says MTT), HeLa. The test is classed as cell-based, human. Particulars: cervical cancer; treated 2 days; mean ± SD (n = 3). How it is done: (§1) HeLa (ATCC; CCL-2) and CaSki (ATCC; CRL-1550) were cultured in Roswell Park Memorial Institute (RPMI) 1,640 Medium (Gibco; #11875-093) supplemented with heat-inactivated 10% fetal bovine serum (FBS) (Gibco; #16000-044), and 1% penicillin (100 units/mL)/streptomycin (100 μg/mL) solution (Gibco; #15240-062). A375P (ATCC; CRL-3224), HEK293T (ATCC; […] CRL-2541) were cultured in Dulbecco's Modified Eagle's Medium (DMEM) (Gibco; #11995-065) supplemented with heat-inactivated 10% FBS (Gibco; #16000-044), and 1% penicillin/streptomycin solution (Gibco; #15240-062). All types of cells were maintained in 100-mm cell culture dishes in a humidified atmosphere of a 5% CO2 incubator at 37°C. All cells were cultured every 2 days using trypsin (Gibco; #12605-010). […] BF-400-S). […] […]), carboplatin (Sigma; […] After changing the culture medium to 100 μL of fresh culture medium, 10 μL of Ez-cytox solution (Dogen; EZ-BULK150) was added to the 96-well plate. […] Synergy).

In a further test the test system is Caski. In words: Cell viability assay, CaSki. The test is classed as cell-based, human. Particulars: cervical cancer; treated 2 days; mean ± SD (n = 3). How it is done:
as §1

For the next test, the system named is A375P. The test can be described thus: Cell viability assay, A375P. The test is classed as cell-based, human. Particulars: skin melanoma; treated 2 days; mean ± SD (n = 3). How it is done:
as §1

In another test the test system is HEK293T. The test can be described thus: Cell viability assay, HEK293T. The test is classed as cell-based, human. The note with it: embryonic kidney cells (non-cancer); treated 2 days; mean ± SD (n = 3). How it is done:
as §1

Another test has as its system C8-D1A. The test can be described thus: Cell viability assay, C8-D1A. Format: cell-based, murine. Particulars: normal astrocyte; treated 2 days; mean ± SD (n = 3). How it is done:
as §1

The test system of test [1] is HeLa cells. In words: ICP-MS metal accumulation in DNA and proteins of HeLa cells. The test is classed as cell-based, human. Particulars: 10 μM, 1, 2, 4 and 8 h. As for the experimental part: After washing with 1× phospho-buffered saline (PBS, Welgene; ML008-02), HeLa cells harvested by trypsinization (Gibco; #12605-010) were used for either protein or DNA extraction. […] The concentration of the soluble protein fraction was measured by BCA (bicinchoninic acid) protein assay kit (Thermo; #23225). Cell lysates were digested in concentrated HNO3 at 160°C for 3 h and rested at room temperature overnight. The digested cell lysates were diluted in DW to make the final concentration of HNO3 less than 5%. […] The metal accumulations in proteins were expressed as ng Pt or Re/mg protein. In order to quantify metal accumulations in DNA, cells were re-suspended in 300 μL of lysis buffer [100 mM NaCl, 25 mM EDTA (Acros; #11843-5000), 0.5% SDS (w/v) (Acros; #230420100), 0.1 mg/ml proteinase K (Merck; #70663-4CN), and 10 mM Tris-HCl, pH 8.0] and incubated at 50°C overnight. A 300 μL of phenol:chloroform:isoamyl alcohol mixture (25:24:1, Sigma; #77617) was added to cell lysates and shaken vigorously. After centrifugation at 13,000 g for 5 min, upper layer containing DNA, out of two layers, was transferred to a new tube. […] DNA concentration was quantified by measuring the absorbance at 260 nm. […] Metal contents in DNA were quantified by ICP-MS as same method as measuring metal contents in protein. The metal accumulations in DNA were expressed as ng Pt or Re/mg DNA.

The subject of test [2] is HeLa cells. In words: Flow cytometry apoptosis analysis (Annexin V-FITC) in HeLa cells. The test is classed as cell-based, human. Particulars: 10 μM TRIP or 50 μM etoposide, 24 h. In general terms: A flow cytometer gives signals particle by particle.
Protocol: HeLa cells were treated with each compound for the designated time and dose, or transfected with siRNAs using Lipofectamine RNAiMAX (Thermo; #15338100). The cells were trypsinized and re-suspended in PBS containing 2% FBS (Gibco; #16000-044). To measure mitochondrial reactive oxygen species (ROS) and polarization, we stained the same number of re-suspended cells with either 2.5 μM of mitoSOX (Invitrogen; M36008) or 500 nM of TMRE (tetramethylrhodamine ethyl ester) (Invitrogen; T669) at 37°C for 1 h. To measure apoptosis, we also stained the same number of re-suspended cells with Annexin V-FITC Apoptosis Staining and Detection Kit (Abcam; ab14085) according to the manufacturer’s protocol. The stained cells were subjected to flow cytometry analysis using FACSAria II (BD).
For the next test, the system named is CHOP. In words: Immunoblotting of CHOP signaling pathways in HeLa cells. Format: cell-based, human. As for the experimental part: The concentration of the soluble protein fraction was measured by BCA protein assay kit (Thermo; #23225).
Test [3] relates to HeLa cells. The test can be described thus: Mitochondrial monitoring in live HeLa cells (mitochondrial fission). Particulars: 10 μM TRIP, 50 μM Mdivi-1 pre-treated 1 h.

As to `N.N.O=C([O-])C1(C(=O)[O-])CCC1.[Pt+2]` [Carboplatin, carboplatin], the IC50 in the test with HeLa is 40.5 ± 2.62 µM; in the test with Caski, 22.73 ± 0.2 µM; with A375P it was 23 ± 0.85 µM; with HEK293T, 49.6 ± 6.99 µM; in the test with C8-D1A, 23.66 ± 0.21 µM.

Take `N.N.[Cl][Pt][Cl]` [Cisplatin, cisplatin]: the IC50 in the test on HeLa was 9.2 ± 0.38 µM; with Caski it was 7.89 ± 0.26 µM; with A375P it was 8.35 ± 0.37 µM; with HEK293T, 8.33 ± 0.3 µM; in the test on C8-D1A, 10.2 ± 0.23 µM. The “metal accumulation in DNA and proteins (Pt for cisplatin, Re for TRIP)” value with HeLa cells [1] is on record as “induced the DNA platination in a time-dependent manner”.

For the molecule `COc1cc([C@@H]2c3cc4c(cc3[C@@H](O[C@@H]3O[C@@H]5CO[C@@H](C)O[C@H]5[C@H](O)[C@H]3O)[C@H]3COC(=O)[C@H]23)OCO4)cc(OC)c1O` [Etoposide, etoposide], in the test on HeLa cells [2], the “mode of cell death” value is recorded as “via apoptosis, not necrosis”.

Turning to `COc1cc(-n2c(=S)[nH]c3ccccc3c2=O)c(Cl)cc1Cl` [Mdivi-1], the “effect on TRIP-induced CHOP activation” value with CHOP (50 μM Mdivi-1 co-treatment with TRIP) is “accelerated TRIP-induced CHOP activation”. Besides, the “effect on thapsigargin-induced CHOP activation” value in the test with CHOP (Mdivi-1 co-treatment with thapsigargin) is reported as “did not boost thapsigargin-induced CHOP activation”. For the same molecule, in the test on HeLa cells [3], the mitochondrial fission entry was “could be blocked by Mdivi-1 treatment”.

Consider `C/C=C(/C)C(=O)O[C@H]1C(C)=C2[C@H]([C@@H]1OC(=O)CCCCCCC)[C@@](C)(OC(C)=O)C[C@H](OC(=O)CCC)[C@@]1(O)[C@H]2OC(=O)[C@@]1(C)O` [thapsigargin], for which the “time to activation of p-eIF2α/ATF4 signaling pathway” value in the test on CHOP (200 nM thapsigargin) was at most 1 h. Also, in the test with CHOP (200 nM thapsigargin or 10 μM TRIP), the “time after which CHOP activation was observed” value stood at 2 h.
